Experimental findings from PubChem BioAssay AID652227 (The Scripps Research Institute Molecular Screening Center, 2013) are described below.

The assay has as its target Serine/threonine-protein phosphatase PP1-alpha catalytic subunit (Homo sapiens) (UniProt P62136). The assay is described as follows: PP1alpha phosphatase inhibitors, phosphorylase substrate – biochemical, radiolabel, dose response, powder samples, set 2, orthogonal assay for PP1 inhibitor probe project, late-stage follow-up (AID 652227). The conditions noted are these: purified PP1alpha, 32P/33P-phosphorylase dephosphorylation, scintillation.

Chain of Serine/threonine-protein phosphatase PP1-alpha catalytic subunit (Homo sapiens) (P62136 whole entry, looked up): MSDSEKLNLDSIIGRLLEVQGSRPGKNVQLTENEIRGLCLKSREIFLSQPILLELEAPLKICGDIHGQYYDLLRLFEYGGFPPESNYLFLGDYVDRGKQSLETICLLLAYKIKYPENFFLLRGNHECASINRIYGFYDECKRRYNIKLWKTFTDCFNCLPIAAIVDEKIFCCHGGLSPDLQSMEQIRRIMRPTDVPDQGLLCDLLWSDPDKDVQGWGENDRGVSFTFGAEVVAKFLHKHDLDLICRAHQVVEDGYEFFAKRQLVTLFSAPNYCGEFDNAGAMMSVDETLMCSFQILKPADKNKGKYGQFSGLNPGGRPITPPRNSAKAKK

As usually defined, the IC50 is the concentration that gives 50% inhibition. With `N#Cc1c(-c2ccc(Cl)cc2)cc(-c2cccs2)nc1SCC(=O)O`, the IC50 is 21.9 µM.
Regarding `CCn1c2ccccc2c2cc(NC(=O)COC(=O)c3ccc(NC(=O)CC#N)cc3)ccc21`, the IC50 is 38 µM.
On to `CCOC(=O)c1sc2nc3c(SCC(=O)O)cc(C(=O)c4cc(F)ccc4O)cn3c(=O)c2c1C`, for which the IC50 was 8.54 µM.
In the case of `CN1CCN(C(c2ccccn2)c2cc(Cl)c3cccnc3c2O)CC1` (stereo not given), the IC50 was 4.89 µM.
`COc1ccc(NC(=O)C2C3CCC(O3)C2C(=O)O)c(OC)c1` (stereo not given) came in with an IC50 of 18.9 µM.
